Data: publication PMC8286840, “Identifying SARS-CoV-2 antiviral compounds by screening for small molecule inhibitors of Nsp3 papain-like protease” (Biochemical Journal, 2021)
Counter-ions that a name gives are not always drawn. Like-named read-outs stand apart in the source and are kept apart here.

Legend:
[1] = molecular target: T1, SARS-CoV-2 PLpro (nsp3 1564–1878) (Severe acute respiratory syndrome coronavirus 2, UniProt P0DTD1); experiment: biochemical; parameters: FRET-quenched peptide (Pro3) cleavage by PLpro, 10 min pre-incubation, slope over 20 min, normalised to no-compound control; details: high concentration screen, read-out: % of control remaining
[2] = molecular target: T1, SARS-CoV-2 PLpro (nsp3 1564–1878); experiment: biochemical; parameters: FRET-quenched peptide (Pro3) cleavage by PLpro, 10 min pre-incubation, slope over 20 min, normalised to no-compound control; details: low concentration screen, read-out: % of control remaining

**Q.** With `N[C@@H](CCC(=O)N[C@@H](CSN=O)C(=O)NCC(=O)O)C(=O)O` [S-Nitrosoglutathione] as the compound, how does the remaining activity at 3.75 µM ([1]; Well no.=855) read?
**A.** 104%

**Q.** What about the remaining activity at 1.25 µM ([2]; Well no.=855) of the same compound?
**A.** 103%

**Q.** `N#CC[C@H](C1CCCC1)n1cc(-c2ncnc3[nH]ccc23)cn1` [S-Ruxolitinib] was tested. Which remaining activity at 3.75 µM ([1]; Well no.=4841) did it give?
**A.** 97.5%

**Q.** What about the remaining activity at 1.25 µM ([2]; Well no.=4841) of the same compound?
**A.** 96.7%

**Q.** Which remaining activity at 3.75 µM ([1]; Well no.=6991) does the source give for `COc1ccc(CCN2CCN(CCCc3ccccc3)CC2)cc1OC` [SA4503 (dihydrochloride)] here?
**A.** 102%

**Q.** What about the remaining activity at 1.25 µM ([2]; Well no.=6991) of the same compound?
**A.** 101%

**Q.** How did the remaining activity at 3.75 µM ([1]; Well no.=7064) turn out when `COc1ccc(CC[C@@H](OC(=O)[C@@H]2CCCCN2C(=O)[C@H](c2cc(OC)c(OC)c(OC)c2)C2CCCCC2)c2cccc(OCCN3CCOCC3)c2)cc1OC` [SAFit2] was run?
**A.** 92.2%

**Q.** And the remaining activity at 1.25 µM ([2]; Well no.=7064)?
**A.** 96.3%

**Q.** With `CC(C)(C)C[C@@H]1N[C@@H](C(=O)N[C@H]2CC[C@H](O)CC2)[C@H](c2cccc(Cl)c2F)[C@]12C(=O)Nc1cc(Cl)ccc12` [SAR405838] as the compound, how does the remaining activity at 3.75 µM ([1]; Well no.=6550) read?
**A.** 110%

**Q.** What about the remaining activity at 1.25 µM ([2]; Well no.=6550) of the same compound?
**A.** 109%

**Q.** `Nc1nccc(-c2c(-c3ccc(F)cc3)ncn2C2CCNCC2)n1` [SB220025] was tested. Which remaining activity at 3.75 µM ([1]; Well no.=2604) did it give?
**A.** 99.7%

**Q.** What about the remaining activity at 1.25 µM ([2]; Well no.=2604) of the same compound?
**A.** 99.6%

**Q.** Which results are given for `COc1nccc(-c2c(-c3ccc(F)cc3)ncn2C2CCNCC2)n1` [SB242235]?
**A.** remaining activity at 3.75 µM ([1]; Well no.=2701): 105%; remaining activity at 1.25 µM ([2]; Well no.=2701): 105%

**Q.** With `NC(N)=NCCC[C@H](NC(=O)COCC(c1ccccc1)c1ccccc1)C(=O)O` [SB290157 (trifluoroacetate)] as the compound, how does the remaining activity at 3.75 µM ([1]; Well no.=8404) read?
**A.** 92.8%

**Q.** What about the remaining activity at 1.25 µM ([2]; Well no.=8404) of the same compound?
**A.** 94.2%

**Q.** For `CCOC(=O)[C@H](Cc1ccc([N+](=O)[O-])cc1)NC(=O)c1ccccc1` [SB297006], which remaining activity at 3.75 µM ([1]; Well no.=8132) is on record?
**A.** 97.6%

**Q.** And the remaining activity at 3.75 µM ([1]; Well no.=8211)?
**A.** 102%

**Q.** What about the remaining activity at 1.25 µM ([2]; Well no.=8132) of the same compound?
**A.** 103%

**Q.** Which results are given for `CN(C)CCOc1ccc(-c2nc(-c3ccncc3)c(-c3ccc4c(c3)CC/C4=N\O)[nH]2)cc1` [SB590885]?
**A.** remaining activity at 3.75 µM ([1]; Well no.=2749): 99.9%; remaining activity at 1.25 µM ([2]; Well no.=2749): 101%

**Q.** Which remaining activity at 3.75 µM ([1]; Well no.=4735) does the source give for `O=C(Nc1ccccc1Br)N[C@@H]1CCN(c2ccc(C(F)(F)F)cn2)C1` [SB705498] here?
**A.** 106%

**Q.** And the remaining activity at 1.25 µM ([2]; Well no.=4735)?
**A.** 103%

**Q.** For `Oc1ccc(-c2nc(-c3ccc(F)cc3)c(-c3ccncc3)[nH]2)cc1` [SB 202190 - 4-[4-(4-Fluorophenyl)-5-(4-pyridinyl)-1H-imidazol-2-yl]phenol], which remaining activity at 3.75 µM ([1]; Well no.=2380) is on record?
**A.** 94.8%

**Q.** What about the remaining activity at 1.25 µM ([2]; Well no.=2380) of the same compound?
**A.** 96.6%

**Q.** Which remaining activity at 3.75 µM ([1]; Well no.=2614) does the source give for `Oc1ccc(-c2nc(-c3ccc(F)cc3)c(-c3ccncc3)[nH]2)cc1` [SB 202190] here?
**A.** 95.5%

**Q.** What about the remaining activity at 1.25 µM ([2]; Well no.=2614) of the same compound?
**A.** 95%

**Q.** Which remaining activity at 3.75 µM ([1]; Well no.=2644) does the source give for `C[S+]([O-])c1ccc(-c2nc(-c3ccc(F)cc3)c(-c3ccncc3)[nH]2)cc1` (stereo not drawn) [SB 203580] here?
**A.** 91.7%

**Q.** And the remaining activity at 1.25 µM ([2]; Well no.=2644)?
**A.** 91.3%

**Q.** What does the source list for `CCCCN1CCC(COC(=O)c2cc(Cl)c(N)c3c2OCCO3)CC1` [SB 204070 hydrochloride]?
**A.** remaining activity at 3.75 µM ([1]; Well no.=1170): 99.4%; remaining activity at 1.25 µM ([2]; Well no.=1170): 97.3%

**Q.** For `CC#CCOC(=O)c1c(C)nc2sc3c(c2c1N)CCC(O)C3` (stereo not drawn) [SB 205384], which remaining activity at 3.75 µM ([1]; Well no.=1508) is on record?
**A.** 96.2%

**Q.** What about the remaining activity at 1.25 µM ([2]; Well no.=1508) of the same compound?
**A.** 97.4%

**Q.** Which remaining activity at 3.75 µM ([1]; Well no.=1375) does the source give for `Cn1ccc2cc3c(cc21)CCN3C(=O)Nc1cccnc1` [SB 206553 hydrochloride] here?
**A.** 101%

**Q.** And the remaining activity at 1.25 µM ([2]; Well no.=1375)?
**A.** 99.8%

**Q.** For `Cn1cc(C2=C(c3ccc(Cl)cc3Cl)C(=O)NC2=O)c2ccccc21` [SB 216763 - 3-(2,4-Dichlorophenyl)-4-(1-methyl-1H-indol-3-yl)-1H-pyrrole-2,5-dione], which remaining activity at 3.75 µM ([1]; Well no.=2442) is on record?
**A.** 100%

**Q.** And the remaining activity at 1.25 µM ([2]; Well no.=2442)?
**A.** 96.9%

**Q.** With `O=C1NC(=O)c2c1c1c3ccccc3n3c1c1c2c2ccccc2n1[C@H]1CC[C@@H]3O1` [SB 218078] as the compound, how does the remaining activity at 3.75 µM ([1]; Well no.=2648) read?
**A.** 94.3%

**Q.** And the remaining activity at 1.25 µM ([2]; Well no.=2648)?
**A.** 92.1%

**Q.** For `Cc1nc(-c2ccc(-c3ccc(C(=O)N4CCc5cc6c(cc54)C4(CCN(C)CC4)CO6)cc3)c(C)c2)no1` [SB 224289 hydrochloride], which remaining activity at 3.75 µM ([1]; Well no.=1423) is on record?
**A.** 97.3%

**Q.** And the remaining activity at 1.25 µM ([2]; Well no.=1423)?
**A.** 96.6%

**Q.** Which remaining activity at 3.75 µM ([1]; Well no.=2478) does the source give for `COc1nccc(-c2c(-c3ccc(F)cc3)ncn2[C@H]2CC[C@H](O)CC2)n1` [SB 239063 - trans-4-[4-(4-Fluorophenyl)-5-(2-methoxy-4-pyrimidinyl)-1H-imidazol-1-yl]cyclohexanol] here?
**A.** 98.4%

**Q.** And the remaining activity at 1.25 µM ([2]; Well no.=2478)?
**A.** 98.8%

**Q.** What does the source list for `COc1nccc(-c2c(-c3ccc(F)cc3)ncn2[C@H]2CC[C@H](O)CC2)n1` [SB 239063]?
**A.** remaining activity at 3.75 µM ([1]; Well no.=2667): 98%; remaining activity at 1.25 µM ([2]; Well no.=2667): 93%

**Q.** Which results are given for `Cc1cc2c(cc1Cl)N(C(=O)Nc1ccc(Oc3cccnc3C)nc1)CC2` [SB 242084 dihydrochloride]?
**A.** remaining activity at 3.75 µM ([1]; Well no.=1222): 102%; remaining activity at 1.25 µM ([2]; Well no.=1222): 102%

**Q.** Which results are given for `CC1CCN(CC[C@H]2CCCN2S(=O)(=O)c2cccc(O)c2)CC1` [SB 269970 hydrochloride]?
**A.** remaining activity at 3.75 µM ([1]; Well no.=1220): 104%; remaining activity at 1.25 µM ([2]; Well no.=1220): 102%

**Q.** Which results are given for `COc1ccc(NS(=O)(=O)c2sc3ccc(Cl)cc3c2C)cc1N1CCNCC1` [SB 271046 (Hydrochloride)]?
**A.** remaining activity at 3.75 µM ([1]; Well no.=7863): 101%; remaining activity at 1.25 µM ([2]; Well no.=7863): 102%

**Q.** Which remaining activity at 3.75 µM ([1]; Well no.=4934) does the source give for `COc1ccc(NS(=O)(=O)c2sc3ccc(Cl)cc3c2C)cc1N1CCNCC1` [SB 271046] here?
**A.** 92.4%

**Q.** What about the remaining activity at 1.25 µM ([2]; Well no.=4934) of the same compound?
**A.** 94.2%

**Q.** Which remaining activity at 3.75 µM ([1]; Well no.=5801) does the source give for `CCOC(=O)[C@H](Cc1ccc([N+](=O)[O-])cc1)NC(=O)c1ccccc1` [SB 297006] here?
**A.** 98.4%

**Q.** And the remaining activity at 1.25 µM ([2]; Well no.=5801)?
**A.** 98.7%

**Q.** What does the source list for `COC(=O)[C@H](Cc1ccc([N+](=O)[O-])cc1)NC(=O)c1cccc2ccccc12` [SB 328437]?
**A.** remaining activity at 3.75 µM ([1]; Well no.=5812): 93.4%; remaining activity at 1.25 µM ([2]; Well no.=5812): 94.2%

**Q.** With `NC(=O)c1ccc(-c2nc(-c3ccccn3)c(-c3ccc4c(c3)OCO4)[nH]2)cc1` [SB 431542 - 4-[4-(1,3-benzodioxol-5-yl)-5-(2-pyridinyl)-1H-imidazol-2-yl]benzamide] as the compound, how does the remaining activity at 3.75 µM ([1]; Well no.=2440) read?
**A.** 107%

**Q.** What about the remaining activity at 1.25 µM ([2]; Well no.=2440) of the same compound?
**A.** 106%

**Q.** Which results are given for `Cc1cccc(-c2[nH]c(C(C)(C)C)nc2-c2ccc3nccnc3c2)n1` [SB 525334]?
**A.** remaining activity at 3.75 µM ([1]; Well no.=4901): 99.1%; remaining activity at 1.25 µM ([2]; Well no.=4901): 99.5%

**Q.** Which remaining activity at 3.75 µM ([1]; Well no.=4812) does the source give for `Cc1ccc(C(=O)N(CCCN)[C@@H](c2oc3cc(Cl)ccc3c(=O)c2Cc2ccccc2)C(C)C)cc1` [SB 743921] here?
**A.** 100%

**Q.** What about the remaining activity at 1.25 µM ([2]; Well no.=4812) of the same compound?
**A.** 97.2%

**Q.** Which results are given for `O=S(=O)(CC1CS1)c1ccc(Oc2ccccc2)cc1` (stereo not drawn) [SB-3CT]?
**A.** remaining activity at 3.75 µM ([1]; Well no.=8478): 91.4%; remaining activity at 1.25 µM ([2]; Well no.=8478): 95.9%

**Q.** How did the remaining activity at 3.75 µM ([1]; Well no.=3035) turn out when `Cn1cc(C2=C(c3ccc(Cl)cc3Cl)C(=O)NC2=O)c2ccccc21` [SB-216763] was run?
**A.** 89.6%

**Q.** And the remaining activity at 1.25 µM ([2]; Well no.=3035)?
**A.** 87.5%

**Q.** Which results are given for `CC[C@H](NC(=O)c1c(C)c(-c2ccccc2)nc2ccccc12)c1ccccc1` [SB-222200]?
**A.** remaining activity at 3.75 µM ([1]; Well no.=7005): 86.5%; remaining activity at 1.25 µM ([2]; Well no.=7005): 96.1%
